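Cells were grown in 96-well plates and exposed to each compound for 48 hours at five concentrations; endpoints were interpolated linearly between bracketing concentrations, or set to the highest concentration if not reached. Here, GI50 denotes the concentration required for 50% inhibition of growth.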 Calls of active or inactive are those of the source. No stated cut-off is given here; in the data, active = GI50 up to about 1.1 µM and inactive = higher.
How the values were obtained:
Experiment in all cases: inhibition of tumour cell growth, NCI panel, 48 h
[1] = system: IGROV-1
[2] = system: UACC-257
[3] = system: SR
[4] = system: U-251
[5] = system: CCRF-CEM
[6] = system: MOLT-4
[7] = system: NCI-H522
[8] = system: NCI-H460
[9] = system: RXF 393
[10] = system: HCC 2998
[11] = system: Malme-3M
[12] = system: SK-MEL-28
[13] = system: TK-10
[14] = system: HOP-92
[15] = system: A498
[16] = system: HOP-62

| SMILES | GI50 [1] | GI50 [2] | GI50 [3] | GI50 [4] | GI50 [5] | GI50 [6] | GI50 [7] | GI50 [8] | GI50 [9] | GI50 [10] | GI50 [11] | GI50 [12] | GI50 [13] | GI50 [14] | GI50 [15] | GI50 [16] |
| --- | --- | --- | --- | --- | --- | --- | --- | --- | --- | --- | --- | --- | --- | --- | --- | --- |
| O=S(=O)(c1ccccc1)C1(C2(S(=O)(=O)c3ccccc3)CCN=N2)CCN=N1 (stereo not drawn) | > 100 µM (inactive) | > 100 µM (inactive) | > 100 µM (inactive) | > 100 µM (inactive) | > 100 µM (inactive) | > 100 µM (inactive) | > 100 µM (inactive) | > 100 µM (inactive) | > 100 µM (inactive) | > 100 µM (inactive) | > 100 µM (inactive) | > 100 µM (inactive) | > 100 µM (inactive) |  |  |  |
| CC(C)(C)c1cc(C(OCCl)(C(F)(F)F)C(F)(F)F)c2c(c1)C(C(F)(F)F)(C(F)(F)F)OC21c2ccccc2C(=O)c2ccccc21 |  | > 100 µM (inactive) | > 100 µM (inactive) | > 100 µM (inactive) |  | > 100 µM (inactive) | > 100 µM (inactive) | > 100 µM (inactive) | > 100 µM (inactive) | > 100 µM (inactive) | > 100 µM (inactive) | > 100 µM (inactive) | > 100 µM (inactive) | < 0.01 µM (active) |  |  |
| C#CCNC(=O)ON1C(=O)CCC1=O | > 100 µM (inactive) | > 100 µM (inactive) |  | > 100 µM (inactive) | > 100 µM (inactive) | > 100 µM (inactive) | > 100 µM (inactive) | > 100 µM (inactive) | > 100 µM (inactive) |  | > 100 µM (inactive) | > 100 µM (inactive) | > 100 µM (inactive) |  | > 100 µM (inactive) | > 100 µM (inactive) |
| Clc1ncnc2c1ncn2CCCCCCCCCCCCn1cnc2c(Cl)ncnc21 | 4.69 µM (inactive) | 2.86 µM (inactive) | 1.06 µM (active) | 11.6 µM (inactive) | 1.36 µM (inactive) | 6.78 µM (inactive) | 1.48 µM (inactive) | 16.4 µM (inactive) | 16.8 µM (inactive) | 6.7 µM (inactive) |  | 2.6 µM (inactive) | 22.1 µM (inactive) | 5.24 µM (inactive) | 12.2 µM (inactive) | 18.6 µM (inactive) |
| O=C(CCCCCCCCCCc1ccccc1)c1c(O)cccc1O | 26.5 µM (inactive) | 20.2 µM (inactive) | 25.2 µM (inactive) | 21.2 µM (inactive) | 31.6 µM (inactive) | 23.7 µM (inactive) | 21.4 µM (inactive) | 20.8 µM (inactive) | 19.4 µM (inactive) | 19.4 µM (inactive) | 17.9 µM (inactive) | 20 µM (inactive) | 39 µM (inactive) | 23.5 µM (inactive) |  | 20.8 µM (inactive) |
| Cc1cc(C)nc(NS(=O)(=O)c2ccc(Nc3c4ccc(Cl)cc4nc4c(C(=O)Nc5ccc(S(=O)(=O)N=C(N)N)cc5)cccc34)cc2)n1 |  | > 100 µM (inactive) |  | 87.5 µM (inactive) | 20.6 µM (inactive) | 29 µM (inactive) | 34.4 µM (inactive) | > 100 µM (inactive) | 29.4 µM (inactive) | > 100 µM (inactive) | 78.7 µM (inactive) | 77.6 µM (inactive) | 98.6 µM (inactive) |  | > 100 µM (inactive) | > 100 µM (inactive) |
| CCOC(=O)/C(=C\c1ccc[nH]1)C(=O)c1ccccc1 |  | > 100 µM (inactive) | 25.8 µM (inactive) | > 100 µM (inactive) | 58.3 µM (inactive) | 43.3 µM (inactive) | > 100 µM (inactive) | > 100 µM (inactive) | 38.2 µM (inactive) | > 100 µM (inactive) | > 100 µM (inactive) | > 100 µM (inactive) | > 100 µM (inactive) | 22.6 µM (inactive) |  | > 100 µM (inactive) |
| Cc1nc(-c2nc(C)c(C(=O)/C=C/c3ccc([N+](=O)[O-])cc3)s2)sc1C(=O)/C=C/c1ccc([N+](=O)[O-])cc1 | > 100 µM (inactive) | > 100 µM (inactive) |  | > 100 µM (inactive) | > 10 µM (inactive) | > 100 µM (inactive) |  | > 100 µM (inactive) | > 100 µM (inactive) | > 100 µM (inactive) | > 100 µM (inactive) | > 100 µM (inactive) | > 100 µM (inactive) | > 100 µM (inactive) | > 100 µM (inactive) | > 100 µM (inactive) |
| C[N+](C)(C)CC1CCC/C1=N\OC(=O)c1ccccc1 (stereo not drawn) | > 100 µM (inactive) | > 100 µM (inactive) | > 100 µM (inactive) | > 100 µM (inactive) | > 100 µM (inactive) | > 100 µM (inactive) | > 100 µM (inactive) |  | > 100 µM (inactive) |  | > 100 µM (inactive) | > 100 µM (inactive) |  |  | > 100 µM (inactive) | > 100 µM (inactive) |
| COc1ccc(CC2(Cc3ccc(OC)cc3)CCOC2=O)cc1 | > 100 µM (inactive) | > 100 µM (inactive) | > 100 µM (inactive) | > 100 µM (inactive) | > 100 µM (inactive) | > 100 µM (inactive) | 17.7 µM (inactive) | > 100 µM (inactive) |  |  | > 100 µM (inactive) | > 100 µM (inactive) | > 100 µM (inactive) | 40.6 µM (inactive) | > 100 µM (inactive) | 20.8 µM (inactive) |
| Cc1cc2c(C)nn(Cc3ccccc3)c2c(C(N)=O)c1C | > 100 µM (inactive) | > 100 µM (inactive) |  | > 100 µM (inactive) | > 100 µM (inactive) | 62.1 µM (inactive) | 99.1 µM (inactive) | > 100 µM (inactive) |  | > 100 µM (inactive) | > 100 µM (inactive) | > 100 µM (inactive) | > 100 µM (inactive) | > 100 µM (inactive) | > 100 µM (inactive) | > 100 µM (inactive) |
| Cc1ccc(C2=NN(C)COC2C(F)(F)F)cc1 (stereo not drawn) | > 100 µM (inactive) | > 100 µM (inactive) | > 100 µM (inactive) | > 100 µM (inactive) | > 100 µM (inactive) | > 100 µM (inactive) | > 100 µM (inactive) | > 100 µM (inactive) | > 100 µM (inactive) | > 100 µM (inactive) | > 100 µM (inactive) | > 100 µM (inactive) |  | > 100 µM (inactive) |  | > 100 µM (inactive) |
| CCOC(=O)N1CCN(C=S)CC1 | > 100 µM (inactive) | > 100 µM (inactive) | > 100 µM (inactive) | > 100 µM (inactive) | > 100 µM (inactive) | > 100 µM (inactive) | > 100 µM (inactive) | > 100 µM (inactive) | > 100 µM (inactive) | > 100 µM (inactive) | > 100 µM (inactive) | > 100 µM (inactive) | > 100 µM (inactive) |  | > 100 µM (inactive) | > 100 µM (inactive) |
| c1ccc(CNc2ccc3[nH]c4cnccc4c3c2)cc1 | 16.8 µM (inactive) | 17.4 µM (inactive) |  | 15.9 µM (inactive) | 16.9 µM (inactive) | 14 µM (inactive) | 14 µM (inactive) | 17.9 µM (inactive) | 13.6 µM (inactive) | 18.1 µM (inactive) | 16.9 µM (inactive) | 13.6 µM (inactive) | 20 µM (inactive) | 15.6 µM (inactive) | 15 µM (inactive) | 17.2 µM (inactive) |
| Cn1c(=O)oc2cc(C3CCC(=O)N3Cc3ccc(Cl)cc3)ccc21 (stereo not drawn) | > 100 µM (inactive) | > 100 µM (inactive) | > 100 µM (inactive) | > 100 µM (inactive) | > 100 µM (inactive) | > 100 µM (inactive) | > 100 µM (inactive) | > 100 µM (inactive) | 29.6 µM (inactive) | > 100 µM (inactive) | > 100 µM (inactive) | > 100 µM (inactive) | > 100 µM (inactive) |  |  | > 100 µM (inactive) |
| Cc1cccc(NC(=O)Cc2nc3ccccc3s2)c1C | > 100 µM (inactive) | > 100 µM (inactive) |  |  | > 100 µM (inactive) | > 100 µM (inactive) | > 100 µM (inactive) | > 100 µM (inactive) | > 100 µM (inactive) | > 100 µM (inactive) | > 100 µM (inactive) | > 100 µM (inactive) | > 100 µM (inactive) |  | 83.8 µM (inactive) | > 100 µM (inactive) |
| Cc1cc(Cl)ccc1NC(=O)CCCC(=O)C1CCCC1=O (stereo not drawn) | > 100 µM (inactive) | > 100 µM (inactive) |  | > 100 µM (inactive) | > 100 µM (inactive) | > 100 µM (inactive) | > 100 µM (inactive) | > 100 µM (inactive) |  | > 100 µM (inactive) | > 100 µM (inactive) |  | > 100 µM (inactive) |  | > 100 µM (inactive) |  |
| O=C1c2c(n(Cc3ccccc3)c(=O)n2Cc2ccccc2)C(=O)N1Cc1ccccc1 | 93.5 µM (inactive) | 67.6 µM (inactive) |  | 50.4 µM (inactive) | 9.2 µM (inactive) | 54.6 µM (inactive) | 56.1 µM (inactive) | 72.4 µM (inactive) | 37.9 µM (inactive) | 61.4 µM (inactive) | > 100 µM (inactive) | > 100 µM (inactive) | > 100 µM (inactive) | > 100 µM (inactive) | 70 µM (inactive) | > 100 µM (inactive) |
| O=C(/C=C/c1ccccc1Cl)c1ccc(Cl)cc1Cl | 14.5 µM (inactive) | 15.9 µM (inactive) |  | 12.9 µM (inactive) | 4.02 µM (inactive) | 3.91 µM (inactive) |  | 17.3 µM (inactive) |  | 19.1 µM (inactive) | 18.9 µM (inactive) | 11.6 µM (inactive) | 17.7 µM (inactive) | 21 µM (inactive) | 18.8 µM (inactive) | 23.2 µM (inactive) |
| CCO/C(CCn1[nH]c(=O)c(Cl)c(Cl)c1=O)=N\NC(=O)C(=O)NN | > 100 µM (inactive) | > 100 µM (inactive) |  | > 100 µM (inactive) | > 100 µM (inactive) | > 100 µM (inactive) | > 100 µM (inactive) | > 100 µM (inactive) | > 100 µM (inactive) | > 100 µM (inactive) | > 100 µM (inactive) | > 100 µM (inactive) | > 100 µM (inactive) |  | 82.8 µM (inactive) | > 100 µM (inactive) |

From ChEMBL document CHEMBL1201862, “PubChem BioAssay data set” (2004)
